# Measured values from the supplement of paper PMC10307832.
# Columns and labels:
# Experiment in all cases: relative viability (nuclei count vs DMSO), 5 days (fraction); higher = more cells survive
# [1] = compound: CCN1C(=O)C2=CC(=C(N=C2N(C1=O)C3CC3)N)C(=O)N + N=C(N)NC(=N)NCCc1ccccc1 [Phenformin] (partner 250 µM)
# Method in brief: (§1)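 Relative viability divides the nuclei count in treated wells by that in vehicle wells. Lung cancer cell lines were seeded in 1536-well plates, dosed by pin tool the next day, and fixed and stained after 5 days in one step with final 0.05% Triton X-100, 1% formaldehyde and 1 ug/ml Hoechst. Dosing was a single drug or a fixed anchor-drug dose plus five library-drug doses (not always all listed) in √10 steps, and values are medians of duplicate plates imaged at 4×.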
# [2] = compound: CCN1C(=O)C2=CC(=C(N=C2N(C1=O)C3CC3)N)C(=O)N + Cc1nc(NC(=O)N2CCC[C@H]2C(N)=O)sc1-c1ccnc(C(C)(C)C(F)(F)F)c1 [Alpelisib] (partner 2 µM)
# Method in brief: as §1
# [3] = compound: CCN1C(=O)C2=CC(=C(N=C2N(C1=O)C3CC3)N)C(=O)N + CS(=O)(=O)CCNCc1ccc(-c2ccc3ncnc(Nc4ccc(OCc5cccc(F)c5)c(Cl)c4)c3c2)o1 [Lapatinib] (partner 2 µM)
# Method in brief: as §1
# [4] = compound: CCN1C(=O)C2=CC(=C(N=C2N(C1=O)C3CC3)N)C(=O)N + NC(=O)Nc1cc(-c2cccc(F)c2)sc1C(=O)N[C@H]1CCCNC1 [AZD7762] (partner 0.2 µM)
# Method in brief: as §1
# [5] = compound: CCN1C(=O)C2=CC(=C(N=C2N(C1=O)C3CC3)N)C(=O)N + Cc1nc(Nc2ncc(C(=O)Nc3c(C)cccc3Cl)s2)cc(N2CCN(CCO)CC2)n1 [Dasatinib] (partner 0.075 µM)
# Method in brief: as §1
Cell Line,relative viability ([1]; first compound 0.8 µM),relative viability ([1]; first compound 2.53 µM),relative viability ([1]; first compound 8 µM),relative viability ([2]; first compound 0.253 µM),relative viability ([2]; first compound 0.8 µM),relative viability ([2]; first compound 2.53 µM),relative viability ([2]; first compound 8 µM),relative viability ([3]; first compound 0.253 µM),relative viability ([3]; first compound 0.8 µM),relative viability ([3]; first compound 2.53 µM),relative viability ([3]; first compound 8 µM),relative viability ([4]; first compound 0.253 µM),relative viability ([4]; first compound 0.8 µM),relative viability ([4]; first compound 2.53 µM),relative viability ([4]; first compound 8 µM),relative viability ([5]; first compound 0.8 µM),relative viability ([5]; first compound 2.53 µM),relative viability ([5]; first compound 8 µM),relative viability ([1]; first compound 0.253 µM),relative viability ([5]; first compound 0.253 µM)
HCC-366,0.595,0.589,0.589,0.442,0.505,0.456,0.468,1.06,0.966,0.988,1.05,0.395,0.312,0.41,0.231,0.656,0.518,0.611,–,–
HCC-827,0.383,0.382,0.382,0.915,0.964,0.941,0.88,0.183,0.219,0.17,0.206,0.165,0.193,0.25,0.207,0.348,0.266,0.284,0.439,0.348
HOP-62,0.696,0.633,0.77,1,1.06,0.778,0.964,0.844,1.29,1.01,1.1,0.727,0.566,0.617,0.899,0.614,0.695,0.598,0.678,0.715
LC-2-ad,0.556,0.505,0.587,0.838,0.897,0.881,0.914,0.841,0.747,0.943,0.903,0.866,0.771,0.853,0.834,0.526,0.652,0.698,0.521,0.537
LCLC-97TM1,0.452,0.375,0.407,0.258,–,–,0.275,1.01,–,–,1.05,0.242,0.155,0.267,0.175,0.948,0.855,0.883,0.383,0.793
LK-2,0.591,0.408,0.535,0.761,1.36,1.3,1.13,0.89,0.878,0.995,1.09,0.516,0.348,0.359,0.608,0.294,0.303,0.221,0.375,0.312
LOU-NH91,0.645,0.822,0.694,0.687,0.716,0.721,0.684,0.869,0.732,0.83,0.766,0.786,0.73,0.725,0.749,0.526,0.54,0.527,0.466,0.499
LU99A,0.915,0.77,0.72,0.488,0.531,0.527,0.524,1.04,0.984,0.984,1.09,0.356,0.377,0.304,0.348,0.548,0.528,0.511,0.778,0.541
LXF-289,0.552,0.519,0.538,1.04,1.07,1.03,1.05,0.867,0.951,0.938,0.89,1.12,1.17,1.08,1.07,0.348,0.28,0.212,0.519,0.229
NCI-H23,0.768,0.749,0.675,0.638,0.741,0.615,0.789,1.21,1.08,1.06,1.11,0.272,0.208,0.284,0.2,0.746,0.762,0.656,0.789,0.786
NCI-H322M,0.736,0.75,0.868,0.855,0.694,0.765,0.656,0.585,0.536,0.562,0.592,0.611,0.548,0.551,0.599,0.224,0.256,0.248,0.822,0.275
NCI-H358,0.351,0.388,0.298,0.795,0.91,0.819,0.87,0.424,0.417,0.526,0.612,0.535,0.536,0.552,0.564,0.148,0.189,0.17,0.355,0.157
NCI-H460,0.571,0.476,0.499,0.471,0.433,0.467,0.466,1.04,1.07,0.902,1.02,0.609,0.572,0.57,0.586,0.541,0.592,0.452,0.519,0.5
NCI-H596,0.72,0.769,0.628,0.491,0.436,0.474,0.438,1.07,1.02,1.09,1.06,1.12,0.998,1.26,1.24,0.569,0.519,0.548,0.707,0.625
NCI-H647,0.519,0.428,0.637,1.11,1.17,1.14,1.07,1.09,1.13,0.992,1.13,0.537,–,0.547,0.581,0.176,0.172,0.16,0.418,0.182
NCI-H650,0.388,0.448,0.433,1.22,1.06,1,1.02,1.03,0.883,1.07,0.872,1.14,0.781,0.999,1.3,0.349,0.424,0.373,0.502,0.434
NCI-H727,0.455,0.459,0.666,0.568,0.572,0.598,0.658,0.925,0.69,0.814,0.857,0.61,0.534,0.726,0.577,0.323,0.333,0.422,0.625,0.352
NCI-H838,0.589,0.551,0.545,1.02,0.985,0.934,0.906,0.948,1.02,0.916,0.896,0.908,0.951,0.961,0.908,0.296,0.316,0.265,0.607,0.29
NCI-H1355,0.473,0.451,0.436,0.829,0.949,0.787,0.853,1.08,1.06,0.998,1.01,0.798,0.821,0.756,0.691,0.717,0.701,0.725,0.463,0.728
NCI-H1395,0.428,0.464,0.439,0.958,1.04,1.01,0.976,1.04,0.915,1.1,0.893,0.42,0.388,0.428,0.397,0.392,0.405,0.405,0.451,0.395
NCI-H1437,0.363,0.334,0.276,0.956,1.12,0.973,1.04,0.818,0.794,0.829,0.838,1.03,1.09,1.17,1.14,0.367,0.464,0.418,0.269,0.404
NCI-H1651,0.326,0.328,0.313,0.86,0.948,0.875,0.957,0.749,0.78,0.936,0.834,0.463,0.434,0.442,0.399,0.465,0.357,0.381,0.297,0.454
NCI-H1666,0.562,0.58,0.558,0.985,0.77,0.969,1.09,0.831,0.495,0.633,0.736,0.888,0.824,0.909,0.84,0.828,0.877,0.762,–,–
NCI-H1734,0.365,0.384,0.361,0.658,0.669,0.688,0.738,1.08,1.07,1.03,1.1,0.514,0.543,0.51,0.566,0.459,0.425,0.453,0.381,0.437
NCI-H1755,0.607,0.381,0.665,0.946,0.922,0.946,0.913,0.999,1.09,0.779,1.02,0.522,0.496,0.408,0.533,0.506,0.459,0.45,0.647,0.411
NCI-H1792,0.237,0.367,0.352,0.777,0.687,0.759,0.774,0.993,0.859,1.1,0.769,0.779,0.624,0.693,0.508,0.826,0.879,0.567,0.224,0.763
NCI-H1793,0.38,0.352,0.408,0.715,0.644,–,0.63,0.635,0.819,–,0.636,0.409,0.408,0.649,0.501,0.434,0.32,0.419,–,–
